According to US20210155905A1, “Method for Obtaining Haploid Cells” (Centre National de la Recherche Scientifique (CNRS), priority 2017, published 2021):
Entries after “also recorded” stand apart in the source; their conditions may differ.

Legend:
3T3 cells [1] = test: FACS DNA content: appearance of the 1C (sub-G1) cell population 20 hours after release from G0; format: cell-based, mouse; details: ΔDboxGeminin-expressing cells, 9 μM RO-3306 upon G0/G1 release
Method: (§1) FIG. 31 represents FACS profiles showing the DNA content (propidium iodide staining) of 3T3 cells 20 hours after release from G0 in the presence (+ΔDboxGem) or not (−ΔDboxGem) of doxycycline alone (CTRL—first column) or combined with RO-3306 treatment (a CDK1 inhibitor that prevents mitotic entry second column) or after UV treatment (performed upon release to induce DNA damage; third column).
For PI, BrdU/PI and ^ser10PH3/PI experiments, cells were fixed in cold 70% Ethanol/PBS and then processed for indirect immunofluorescence, as described above. To detect cyclin B1/PI, MPM2/PI and FLAG/PI, cells were fixed in 3% PFA in PBS at RT for 15 min, permeabilized in 0.5% Triton X-100 for 5 min and processed for indirect immunofluorescence. For DNA staining, cells were treated with 50 μg·mL^−1 RNase A (Sigma, R6513) and stained with 25 μg·mL^−1 propidium iodide.
(§2) To express CDT1, 3T3 cells were transfected with 5 μg of plasmid pCDNA3-CDT1 or empty vector using Nucleofector TN II; Amaxa Biosystem; AAD-1001N. To induce DNA damage, synchronized cells were exposed to UV (0.002 joules) using the Bioblock Scientific BLX-254 upon release or incubated with 2 mM hydroxyurea for 20 hours. To block mitotic progression, 9 μM RO-3306 was added in the medium upon G0/G1 release.

3T3 cells [2] = test: Western blotting of cleaved caspase 3 (apoptosis); format: cell-based, mouse; details: synchronized cells, hydroxyurea for 20 hours
Method: as §1
FIG. 32 is a control western blot used as control of the experiment of FIG. 31. […] A: next G1, B: HU and C: U.V. C3*: cleaved caspase 3 and H3: histone H3.
as §2
To prepare total cell extracts, cells were harvested, washed twice with PBS, lysed in 2× Laemmli buffer, sonicated (3×30 seconds) and boiled for 5 min. To obtain chromatin-enriched fractions, a protocol adapted from Lutzmann et al. [Lutzmann et al. 2012 Molecular Cell, 47, 523-534] was used. […]

Compound | appearance of the 1C DNA content cell population (3T3 cells [1]) | apoptosis (cleaved caspase 3) (3T3 cells [2])
O=C1NC(=NCc2cccs2)S/C1=C\c1ccc2ncccc2c1 [RO-3306] | prevented mitotic entry and the appearance of the 10 DNA cell population; also recorded: totally prevented their appearance | 
NC(=O)NO [hydroxyurea] |  | did not induce detectable apoptosis
